According to patent publication US9056876B2, “Substituted 1H-pyrazolo[3′,4′,4,5]thieno[2,3-b]pyridin-3-amine analogs as positive allosteric modulators of the muscarinic acetylcholine receptor M4” (VANDERBILT UNIVERSITY, priority 2011, dated 2015):

Target: T1, mAChR M4 (UniProt P08173)
T1 construct: hM1 and hM4 cDNAs were purchased from Missouri S&T cDNA Resource
T1 sequence (P08173 1-479): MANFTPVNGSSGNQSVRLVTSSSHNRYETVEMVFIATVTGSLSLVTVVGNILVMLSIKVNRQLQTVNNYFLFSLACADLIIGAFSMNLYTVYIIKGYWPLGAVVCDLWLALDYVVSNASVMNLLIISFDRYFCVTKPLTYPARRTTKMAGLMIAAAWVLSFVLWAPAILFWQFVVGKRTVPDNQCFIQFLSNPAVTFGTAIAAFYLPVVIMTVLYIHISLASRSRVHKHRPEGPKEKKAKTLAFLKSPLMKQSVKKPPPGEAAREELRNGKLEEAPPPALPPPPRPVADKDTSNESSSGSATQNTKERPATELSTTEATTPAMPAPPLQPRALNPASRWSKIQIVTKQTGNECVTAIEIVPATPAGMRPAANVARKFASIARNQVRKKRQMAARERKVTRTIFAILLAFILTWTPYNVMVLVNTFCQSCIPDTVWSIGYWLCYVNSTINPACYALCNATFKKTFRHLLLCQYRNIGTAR
Assay: mAChR M4 cell-based functional assay (calcium mobilization, Fluo-4, FDSS)
Details: for Emax (%)*: % ACh maximum at 30 μM; for pEC50: positive allosteric modulator activity, EC20 acetylcholine response; for pEC50 / EC50: CHO-K1 cells; for EC50: positive allosteric modulator activity: concentration-dependent increase in the EC20 acetylcholine response, >10 μM estimated for low potency (no plateau)
Source text: Chinese hamster ovary (CHO-K1) cells stably expressing rat (r)M1 were purchased from the American Type Culture Collection and cultured according to their indicated protocol. CHO cells stably expressing human (h)M2, hM3, and hM5 were described previously (Levey A I, et al., (1991) J Neurosci 11:3218-3226.); hM1 and hM4 cDNAs were purchased from Missouri S&T cDNA Resource; rM4 cDNA was provided by T. I. Bonner (National Institutes of Health, Bethesda, Md.). rM2 and rM3 were cloned from a rat brain cDNA library and sequence verified. hM1, rM2, rM3, hM4, and rM4 cDNAs were used to stably transfect CHO-K1 cells purchased from the American Type Culture Collection using Lipofectamine-2000. To make stable rM2, hM2, rM3, hM4, and rM4 cell lines for use in calcium mobilization assays, these cells also were stably transfected with a chimeric G-protein (Gqi5) (provided by B. R. Conklin, University of California, San Francisco) using Lipofectamine 2000. rM1, hM1, rM3, hM3, rM5, and hM5 cells were grown in Ham's F-12 medium containing 10% heat-inactivated fetal bovine serum (FBS), 20 mM HEPES, and 50 µg/mL G418 sulfate. rM2-Gqi5, hM2-Gqi5, and hM4-Gqi5 cells were grown in the same medium also containing 500 µg/mL Hygromycin B. Stable rM4-Gqi5 cells were grown in DMEM containing 10% heat-inactivated FBS, 20 mM HEPES, 400 µg/mL G418 sulfate, and 500 µg/mL Hygromycin B.
For high throughput measurement of agonist-evoked increases in intracellular calcium, CHO-K1 cells stably expressing the target muscarinic receptor were plated in growth medium lacking G418 and hygromycin at 15,000 cells/20 μL/well in Greiner 384-well black-walled, tissue culture (TC)-treated, clear-bottom plates (VWR). Cells were incubated overnight at 37° C. and 5% CO2. The next day, cells were washed using an ELX 405 (BioTek) with four washes (80 μL) of assay buffer then aspirated to 20 μL. Next, […] of 16 μM Fluo-4/acetoxymethyl ester (Invitrogen, Carlsbad, Calif.) prepared as a 2.3 mM stock in DMSO and mixed in a 1:1 ratio with 10% (w/v) Pluronic F-127 and diluted in assay buffer was added to the wells and the cell plates were incubated for 50 min at 37° C. and 5% CO2. Dye was removed by washing with the ELX 405 (four 80 μL washes of assay buffer) then aspirated to 20 μL. Compound master plates were formatted in an 11 point CRC format (1:3 dilutions) in 100% DMSO with a starting concentration of 10 mM using the BRAVO liquid handler (Agilent). Test compound CRCs were then transferred to daughter plates (240 nL) using the Echo acoustic plate reformatter (Labcyte, Sunnyvale, Calif.) and then diluted into assay buffer (40 μL) to a 2× stock using a Thermo Fisher Combi (Thermo Fisher Scientific, Waltham, Mass.).
Calcium flux was measured using the Functional Drug Screening System (FDSS) 6000 (Hamamatsu Corporation, Tokyo, Japan) as an increase in the fluorescent static ratio. Compounds were applied to cells (20 μL, 2×) using the automated system of the FDSS 6000 at 4 s into the 300 s protocol and the data were collected at 1 Hz. At 144 s into the 300 s protocol, 10 μL of an EC20 concentration of the muscarinic receptor agonist acetylcholine was added (5×), followed by the addition of 12 μL an EC80 concentration of acetylcholine at the 230 s time point (5×). Agonist activity was analyzed as a concentration-dependent increase in calcium mobilization upon compound addition. Positive allosteric modulator activity was analyzed as a concentration-dependent increase in the EC20 acetylcholine response. Antagonist activity was analyzed as a concentration-dependent decrease in the EC80 acetylcholine response. Concentration-response curves were generated using a four-parameter logistical equation in XLfit curve fitting software (IDBS, Bridgewater, N.J.) for Excel (Microsoft, Redmond, Wash.) or Prism (GraphPad Software, Inc., San Diego, Calif.). […]

| Compound | Emax (%)* | pEC50 | EC50 |
| --- | --- | --- | --- |
| Cc1cc(C)c2c(n1)sc1c(NC3CCOCC3)nn(CCO)c12 [Compound 115, 2-(6,8-dimethyl-3-((tetrahydro-2H-pyran-4-yl)amino)-1H-pyrazolo[3′,4′:4,5]thieno[2,3-b]pyridin-1-yl)ethanol] | 69% | 5.72 | 1900 nM |
| Cc1ccc2c(n1)sc1c(NCc3ccncc3)nn(C)c12 [Compound 67, 1,6-dimethyl-N-(pyridin-4-ylmethyl)-1H-pyrazolo[3′,4′:4,5]thieno[2,3-b]pyridin-3-amine] | 80% | 5.96 | 1100 nM |
| Cc1cc(C)c2c(n1)sc1c(NCc3ccc(S(C)(=O)=O)c(F)c3)nn(C)c12 [Compound 94, N-(3-fluoro-4-(methylsulfonyl)benzyl)-1,6,8-trimethyl-1H-pyrazolo[3′,4′:4,5]thieno[2,3-b]pyridin-3-amine] | 74% | 7.09 | 81 nM |
| CCOC(=O)CNc1n[nH]c2c1sc1nc(C)cc(C)c12 [Compound 111, ethyl 2-((6,8-dimethyl-1H-pyrazolo[3′,4′:4,5]thieno[2,3-b]pyridin-3-yl)amino)acetate] | 50% | <5.00 | > 10000 nM |
| Cc1cc(C)c2c(n1)sc1c(NCC3CCNCC3)nn(C)c12 [Compound 123, 1,6,8-trimethyl-N-(piperidin-4-ylmethyl)-1H-pyrazolo[3′,4′:4,5]thieno[2,3-b]pyridin-3-amine] | 30% | <5.00 | > 10000 nM |
| Cc1cc(C)c2c(n1)sc1c(NC3CCOCC3)nn(C)c12 [Compound 65, 1,6,8-trimethyl-N-(tetrahydro-2H-pyran-4-yl)-1H-pyrazolo[3′,4′:4,5]thieno[2,3-b]pyridin-3-amine] | 78% | 6.00 | 1000 nM |
| Cc1cc(C)c2c(n1)sc1c(NC3CCC(N)CC3)n[nH]c12 (centres unmarked) [Compound 138, N1-(6,8-dimethyl-1H-pyrazolo[3′,4′:4,5]thieno[2,3-b]pyridin-3-yl)cyclohexane-1,4-diamine] | – | <5.00 | > 10000 nM |
| Cc1cc(C)c2c(n1)sc1c(NC3CCOC3)nn(C)c12 (centres unmarked) [Compound 103, 1,6,8-trimethyl-N-(tetrahydrofuran-3-yl)-1H-pyrazolo[3′,4′:4,5]thieno[2,3-b]pyridin-3-amine] | 67% | 6.62 | 240 nM |
| Cc1cc(C)c2c(n1)sc1c(NC(C)C)nn(CCO)c12 [Compound 112, 2-(3-(isopropylamino)-6,8-dimethyl-1H-pyrazolo[3′,4′:4,5]thieno[2,3-b]pyridin-1-yl)ethanol] | 71% | 5.68 | 2100 nM |
| Cc1ccc(CNc2nn(C)c3c2sc2nc(C)cc(C)c23)c(C)c1 [Compound 59, N-(2,4-dimethylbenzyl)-1,6,8-trimethyl-1H-pyrazolo[3′,4′:4,5]thieno[2,3-b]pyridin-3-amine] | 57% | 5.60 | 2500 nM |
| Cc1ccnc2sc3c(NCC4CC4)nn(C)c3c12 [Compound 160, N-(cyclopropylmethyl)-1,8-dimethyl-1H-pyrazolo[3′,4′:4,5]thieno[2,3-b]pyridin-3-amine] | – | <5.00 | > 10000 nM |
| Cc1cc(C)c2c(n1)sc1c(NC(=O)C3CC3)n[nH]c12 [Compound 2, N-(6,8-dimethyl-1H-pyrazolo[3′,4′:4,5]thieno[2,3-b]pyridin-3-yl)cyclopropanecarboxamide] | 36% | 5.42 | 3840 nM |
| Cc1cc(C)c2c(n1)sc1c(NCc3sc(C)nc3C)nn(C)c12 [Compound 99, N-((2,4-dimethylthiazol-5-yl)methyl)-1,6,8-trimethyl-1H-pyrazolo[3′,4′:4,5]thieno[2,3-b]pyridin-3-amine] | 66% | 7.03 | 93 nM |
| Cc1ccc2c(n1)sc1c(NCc3ccc(Cl)cc3)nn(C)c12 [Compound 56, N-(4-chlorobenzyl)-1,6-dimethyl-1H-pyrazolo[3′,4′:4,5]thieno[2,3-b]pyridin-3-amine] | 56% | <5.00 | > 10000 nM |
| Cc1cc(C)c2c(n1)sc1c(NC3CCCC3)nn(C)c12 [Compound 64, N-cyclopentyl-1,6,8-trimethyl-1H-pyrazolo[3′,4′:4,5]thieno[2,3-b]pyridin-3-amine] | 83% | 6.85 | 140 nM |
| Cc1cc(C)c2c(n1)sc1c(N)n[nH]c12 [Compound 1, 6,8-dimethyl-1H-pyrazolo[3′,4′:4,5]thieno[2,3-b]pyridin-3-amine] | 27% | <5.00 | > 10000 nM |
| Cc1cc(C)c2c(n1)sc1c(NCC(C)(C)C)nn(C)c12 [Compound 104, 1,6,8-trimethyl-N-neopentyl-1H-pyrazolo[3′,4′:4,5]thieno[2,3-b]pyridin-3-amine] | 61% | 6.00 | 1000 nM |
| Cc1cc(C)c2c(n1)sc1c(NC3CCCCCC3)n[nH]c12 [Compound 133, N-cycloheptyl-6,8-dimethyl-1H-pyrazolo[3′,4′:4,5]thieno[2,3-b]pyridin-3-amine] | – | <5.00 | > 10000 nM |
| CCC(=O)Nc1nn(C)c2c1sc1nc(C)cc(C)c12 [Compound 47, N-(1,6,8-trimethyl-1H-pyrazolo[3′,4′:4,5]thieno[2,3-b]pyridin-3-yl)propionamide] | 43% | 5.54 | 2900 nM |
| Cc1cc(C)c2c(n1)sc1c(NC3CCN(C)CC3)n[nH]c12 [Compound 134, 6,8-dimethyl-N-(1-methylpiperidin-4-yl)-1H-pyrazolo[3′,4′:4,5]thieno[2,3-b]pyridin-3-amine] | – | <5.00 | > 10000 nM |
| Cc1cc(C)c2c(n1)sc1c(NC(=O)C3CC3)nn(C)c12 [Compound 46, N-(1,6,8-trimethyl-1H-pyrazolo[3′,4′:4,5]thieno[2,3-b]pyridin-3-yl)cyclopropanecarboxamide] | 44% | <5.00 | > 10000 nM |
| Cc1cc(C)c2c(n1)sc1c(NCc3csc(C)n3)nn(C)c12 [Compound 82, 1,6,8-trimethyl-N-((2-methylthiazol-4-yl)methyl)-1H-pyrazolo[3′,4′:4,5]thieno[2,3-b]pyridin-3-amine] | 63% | 6.41 | 390 nM |
